From the NIST ThermoML archive (doi:10.1021/je060271a)
Several values for one entry are separate records, joined by “and”; a condition that tells them apart may be missing. Equal values may be shown once. Numbers after ± are expanded uncertainties.

Settings: Liquid, Vibrating tube method

CCCCCCCC(=O)OCC(COC(=O)CCCCCCC)(COC(=O)CCCCCCC)COC(=O)CCCCCCC [pentaerythritol tetraoctanoate]
Settings	mass density
303.14 K, 4098.2 kPa	957.9 ± 1.2 kg/m3
303.14 K, 4118.3 kPa	957.9 ± 1.2 kg/m3
303.14 K, 4135.4 kPa	957.9 ± 1.2 kg/m3
303.14 K, 4156 kPa	957.9 ± 1.2 kg/m3
303.14 K, 4172.8 kPa	957.9 ± 1.2 kg/m3
303.14 K, 4194.3 kPa	958 ± 1.2 kg/m3
303.14 K, 4211.9 kPa	958 ± 1.2 kg/m3
303.14 K, 4232.9 kPa	958.1 ± 1.2 kg/m3
303.14 K, 4250 kPa	958 ± 1.2 kg/m3
303.14 K, 4271.5 kPa	958.1 ± 1.2 kg/m3
303.14 K, 4289.7 kPa	958 ± 1.2 kg/m3
303.14 K, 4414.6 kPa	958.1 ± 1.2 kg/m3
303.14 K, 4495.8 kPa	958.1 ± 1.2 kg/m3
303.14 K, 4506.9 kPa	958.2 ± 1.2 kg/m3
303.14 K, 4516.1 kPa	958.2 ± 1.2 kg/m3
303.14 K, 4528.5 kPa	958.3 ± 1.2 kg/m3
303.14 K, 4565.1 kPa	958.2 ± 1.2 kg/m3
303.14 K, 4883.3 kPa	958.4 ± 1.2 kg/m3
303.14 K, 4909.3 kPa	958.4 ± 1.2 kg/m3
303.14 K, 4931.2 kPa	958.5 ± 1.2 kg/m3
303.14 K, 4958.7 kPa	958.5 ± 1.2 kg/m3
303.14 K, 5309.4 kPa	958.7 ± 1.2 kg/m3
303.14 K, 5618.4 kPa	958.8 ± 1.2 kg/m3
303.14 K, 5650.1 kPa	958.8 ± 1.2 kg/m3
303.14 K, 5689.5 kPa	958.9 ± 1.2 kg/m3
303.14 K, 5713.9 kPa	959 ± 1.2 kg/m3
303.14 K, 5742.8 kPa	959 ± 1.2 kg/m3
303.14 K, 6420.5 kPa	959.2 ± 1.2 kg/m3
303.14 K, 6514.5 kPa	959.4 ± 1.2 kg/m3
303.14 K, 6535.9 kPa	959.5 ± 1.2 kg/m3
303.14 K, 6561.5 kPa	959.4 ± 1.2 kg/m3
303.14 K, 6885.2 kPa	959.7 ± 1.2 kg/m3
303.14 K, 6937.5 kPa	959.7 ± 1.2 kg/m3
303.14 K, 6965.9 kPa	959.7 ± 1.2 kg/m3
303.14 K, 6989.7 kPa	959.7 ± 1.2 kg/m3
303.14 K, 7018.5 kPa	959.7 ± 1.2 kg/m3
303.14 K, 7042.7 kPa	959.8 ± 1.2 kg/m3
303.14 K, 7072.4 kPa	959.8 ± 1.2 kg/m3
303.14 K, 7331.7 kPa	960 ± 1.2 kg/m3
303.14 K, 7358.2 kPa	959.8 ± 1.2 kg/m3
303.14 K, 7974.8 kPa	960.4 ± 1.2 kg/m3
303.14 K, 8046.4 kPa	960.3 ± 1.2 kg/m3
303.14 K, 8085.7 kPa	960.5 ± 1.2 kg/m3
303.14 K, 8120 kPa	960.5 ± 1.2 kg/m3
303.14 K, 8830.9 kPa	960.7 ± 1.2 kg/m3
303.14 K, 9313 kPa	961.2 ± 1.2 kg/m3
303.14 K, 9339.7 kPa	961.2 ± 1.2 kg/m3
303.14 K, 11022 kPa	962.1 ± 1.2 kg/m3
303.14 K, 11048 kPa	962.2 ± 1.2 kg/m3
303.14 K, 13652 kPa	963.7 ± 1.2 kg/m3
303.14 K, 13735 kPa	963.7 ± 1.2 kg/m3
303.14 K, 13777 kPa	963.7 ± 1.2 kg/m3
303.14 K, 13855 kPa	963.8 ± 1.2 kg/m3
303.14 K, 13898 kPa	963.8 ± 1.2 kg/m3
303.14 K, 14022 kPa	964 ± 1.2 kg/m3
303.15 K, 104.6 kPa	955.3 ± 1.2 kg/m3 and 955.4 ± 1.2 kg/m3
303.15 K, 104.7 kPa	955.5 ± 1.2 kg/m3 and 955.4 ± 1.2 kg/m3
303.15 K, 104.9 kPa	955.4 ± 1.2 kg/m3
303.15 K, 105.1 kPa	955.4 ± 1.2 kg/m3
303.15 K, 106.7 kPa	955.3 ± 1.2 kg/m3
303.15 K, 113.4 kPa	955.5 ± 1.2 kg/m3
303.15 K, 119.7 kPa	955.5 ± 1.2 kg/m3
303.15 K, 123.3 kPa	955.5 ± 1.2 kg/m3
303.15 K, 127.9 kPa	955.5 ± 1.2 kg/m3
303.15 K, 133.8 kPa	955.5 ± 1.2 kg/m3
303.15 K, 141.4 kPa	955.5 ± 1.2 kg/m3
303.15 K, 151 kPa	955.4 ± 1.2 kg/m3
303.15 K, 163.8 kPa	955.4 ± 1.2 kg/m3
303.15 K, 180.7 kPa	955.5 ± 1.2 kg/m3
303.15 K, 203.5 kPa	955.6 ± 1.2 kg/m3
303.15 K, 234.4 kPa	955.6 ± 1.2 kg/m3
303.15 K, 272.8 kPa	955.5 ± 1.2 kg/m3
303.15 K, 306.2 kPa	955.6 ± 1.2 kg/m3
303.15 K, 333.5 kPa	955.7 ± 1.2 kg/m3
303.15 K, 351.9 kPa	955.6 ± 1.2 kg/m3
303.15 K, 363.2 kPa	955.6 ± 1.2 kg/m3
303.15 K, 377.9 kPa	955.7 ± 1.2 kg/m3
303.15 K, 393.4 kPa	955.6 ± 1.2 kg/m3
303.15 K, 410.1 kPa	955.7 ± 1.2 kg/m3
303.15 K, 427 kPa	955.6 ± 1.2 kg/m3
303.15 K, 438.6 kPa	955.6 ± 1.2 kg/m3
303.15 K, 450.2 kPa	955.6 ± 1.2 kg/m3
303.15 K, 462.7 kPa	955.6 ± 1.2 kg/m3
303.15 K, 474.7 kPa	955.6 ± 1.2 kg/m3
303.15 K, 487.9 kPa	955.7 ± 1.2 kg/m3
303.15 K, 499.6 kPa	955.6 ± 1.2 kg/m3
303.15 K, 514.7 kPa	955.8 ± 1.2 kg/m3
303.15 K, 529.5 kPa	955.5 ± 1.2 kg/m3
303.15 K, 545.8 kPa	955.7 ± 1.2 kg/m3
303.15 K, 562.8 kPa	955.6 ± 1.2 kg/m3
303.15 K, 580.7 kPa	955.7 ± 1.2 kg/m3
303.15 K, 600.2 kPa	955.7 ± 1.2 kg/m3
303.15 K, 620 kPa	955.7 ± 1.2 kg/m3
303.15 K, 635.4 kPa	955.8 ± 1.2 kg/m3
303.15 K, 653.7 kPa	955.7 ± 1.2 kg/m3
303.15 K, 673.1 kPa	955.8 ± 1.2 kg/m3
303.15 K, 690.2 kPa	955.8 ± 1.2 kg/m3
303.15 K, 711.7 kPa	955.8 ± 1.2 kg/m3
303.15 K, 734 kPa	955.8 ± 1.2 kg/m3
303.15 K, 753.9 kPa	955.8 ± 1.2 kg/m3
303.15 K, 778.9 kPa	955.8 ± 1.2 kg/m3
303.15 K, 805.3 kPa	955.7 ± 1.2 kg/m3
303.15 K, 828.4 kPa	956 ± 1.2 kg/m3
303.15 K, 856.4 kPa	956 ± 1.2 kg/m3
303.15 K, 878.8 kPa	956 ± 1.2 kg/m3
303.15 K, 896.7 kPa	955.9 ± 1.2 kg/m3
303.15 K, 918.8 kPa	955.9 ± 1.2 kg/m3
303.15 K, 937.7 kPa	955.8 ± 1.2 kg/m3
303.15 K, 961.3 kPa	955.9 ± 1.2 kg/m3
303.15 K, 986.7 kPa	956 ± 1.2 kg/m3
303.15 K, 1012 kPa	956 ± 1.2 kg/m3
303.15 K, 1034.8 kPa	956.1 ± 1.2 kg/m3
303.15 K, 1062.9 kPa	956 ± 1.2 kg/m3
303.15 K, 1087.6 kPa	956.1 ± 1.2 kg/m3
303.15 K, 1118 kPa	956.1 ± 1.2 kg/m3
303.15 K, 1149.9 kPa	956 ± 1.2 kg/m3
303.15 K, 1183.3 kPa	956 ± 1.2 kg/m3
303.15 K, 1212.4 kPa	956.1 ± 1.2 kg/m3
303.15 K, 1248.7 kPa	956.1 ± 1.2 kg/m3
303.15 K, 1287.1 kPa	956.2 ± 1.2 kg/m3
303.15 K, 1320.4 kPa	956.1 ± 1.2 kg/m3
303.15 K, 1362.3 kPa	956.1 ± 1.2 kg/m3
303.15 K, 1407.7 kPa	956.3 ± 1.2 kg/m3
303.15 K, 1447.7 kPa	956.2 ± 1.2 kg/m3
303.15 K, 1500.9 kPa	956.2 ± 1.2 kg/m3
303.15 K, 1544.9 kPa	956.4 ± 1.2 kg/m3
303.15 K, 1600.2 kPa	956.4 ± 1.2 kg/m3
303.15 K, 1657.7 kPa	956.3 ± 1.2 kg/m3
303.15 K, 1716.5 kPa	956.4 ± 1.2 kg/m3
303.15 K, 1763.5 kPa	956.4 ± 1.2 kg/m3
303.15 K, 1789.9 kPa	956.6 ± 1.2 kg/m3
303.15 K, 1809.7 kPa	956.6 ± 1.2 kg/m3
303.15 K, 1826.2 kPa	956.5 ± 1.2 kg/m3
303.15 K, 1847 kPa	956.6 ± 1.2 kg/m3
303.15 K, 1864.2 kPa	956.5 ± 1.2 kg/m3
303.15 K, 1884.7 kPa	956.4 ± 1.2 kg/m3
303.15 K, 1906.9 kPa	956.5 ± 1.2 kg/m3
303.15 K, 1925.8 kPa	956.5 ± 1.2 kg/m3
303.15 K, 1948 kPa	956.5 ± 1.2 kg/m3
303.15 K, 1967.5 kPa	956.7 ± 1.2 kg/m3
303.15 K, 1990.5 kPa	956.6 ± 1.2 kg/m3
303.15 K, 2013.8 kPa	956.6 ± 1.2 kg/m3
303.15 K, 2034.1 kPa	956.6 ± 1.2 kg/m3
303.15 K, 2058.5 kPa	956.7 ± 1.2 kg/m3
303.15 K, 2083.2 kPa	956.6 ± 1.2 kg/m3
303.15 K, 2104.7 kPa	956.6 ± 1.2 kg/m3
303.15 K, 2130.4 kPa	956.7 ± 1.2 kg/m3
